Species: Rattus norvegicus
Assay: DrugMatrix - Regimen: Daily Repeat
Type: toxicity, organism-based, Sprague-Dawley
Design: regimen Daily Repeat, gender Male, age 6-8 weeks
Settings: in vivo, po, route oral GAVAGE, vehicle 100 % SALINE; for ABSOLUTE BASOPHIL / ABSOLUTE EOSINOPHIL / ABSOLUTE LYMPHOCYTE / ABSOLUTE MONOCYTE / ABSOLUTE SEGMENTED NEUTROPHIL / BASOPHIL / EOSINOPHIL / ERYTHROCYTE COUNT / HEMATOCRIT / HEMOGLOBIN / LEUKOCYTE COUNT / LYMPHOCYTE / MEAN CORPUSCULAR HEMOGLOBIN / MEAN CORPUSCULAR HEMOGLOBIN CONCENTRATION / MEAN CORPUSCULAR VOLUME / MONOCYTE / NEUTROPHIL / NUCLEATED RED BLOOD CELLS / PLATELET COUNT: tissue Blood; for ALANINE AMINOTRANSFERASE / ALBUMIN / ALKALINE PHOSPHATASE / ASPARTATE AMINOTRANSFERASE / BLOOD UREA NITROGEN / CARBON DIOXIDE / CHLORIDE / CHOLESTEROL / CREATINE PHOSPHOKINASE / CREATININE / GLUCOSE / LACTATE DEHYDROGENASE / LIPASE / PHOSPHORUS / POTASSIUM / SODIUM / TOTAL BILIRUBIN / TOTAL PROTEIN / URIC ACID: tissue Plasma
[1] = 59 mg/kg, 120 h, dose level Low, time 5 day
[2] = 400 mg/kg, 72 h, dose level High, time 3 day
[3] = 400 mg/kg, 120 h, dose level High, time 5 day

NC(=O)NO [HYDROXYUREA]
ABSOLUTE BASOPHIL [1]: 0 CELLS/uL
ABSOLUTE EOSINOPHIL [1]: 40 CELLS/uL
ABSOLUTE LYMPHOCYTE [1]: 7014.67 CELLS/uL
ABSOLUTE MONOCYTE [1]: 87.67 CELLS/uL
ABSOLUTE SEGMENTED NEUTROPHIL [1]: 557.67 CELLS/uL
BASOPHIL [1]: 0%
EOSINOPHIL [1]: 0.67%
ERYTHROCYTE COUNT [1]: 5.35 x10E6/uL
HEMATOCRIT [1]: 34.53%
HEMOGLOBIN [1]: 13.4 G/DL
LEUKOCYTE COUNT [1]: 7.7 x10E3/uL
LYMPHOCYTE [1]: 90.67%
MEAN CORPUSCULAR HEMOGLOBIN [1]: 25.1 pg
MEAN CORPUSCULAR HEMOGLOBIN CONCENTRATION [1]: 38.83 G/DL
MEAN CORPUSCULAR VOLUME [1]: 64.63 fL
MONOCYTE [1]: 1%
NEUTROPHIL [1]: 7.67%
NUCLEATED RED BLOOD CELLS [1]: 0 /100WBC
PLATELET COUNT [1]: 1286 x10E3/uL
ALANINE AMINOTRANSFERASE [1]: 54 u/L
ALBUMIN [1]: 4.1 G/DL
ALKALINE PHOSPHATASE [1]: 381.33 u/L
ASPARTATE AMINOTRANSFERASE [1]: 80.33 u/L
BLOOD UREA NITROGEN [1]: 12.33 mg/dL
CARBON DIOXIDE [1]: 29.67 mmol/L
CHLORIDE [1]: 98 MEQ/L
CHOLESTEROL [1]: 64 mg/dL
CREATINE PHOSPHOKINASE [1]: 314.67 u/L
CREATININE [1]: 0.22 mg/dL
GLUCOSE [1]: 169.33 mg/dL
LACTATE DEHYDROGENASE [1]: 90.33 u/L
LIPASE [1]: 10.67 u/L
PHOSPHORUS [1]: 10.9 mg/dL
POTASSIUM [1]: 5.6 MEQ/L
SODIUM [1]: 143.13 MEQ/L
TOTAL BILIRUBIN [1]: 0.17 mg/dL
TOTAL PROTEIN [1]: 6.1 G/DL
URIC ACID [1]: 0.8 mg/dL
ABSOLUTE BASOPHIL [2]: 0 CELLS/uL
ABSOLUTE EOSINOPHIL [2]: 0 CELLS/uL
ABSOLUTE LYMPHOCYTE [2]: 4351 CELLS/uL
ABSOLUTE MONOCYTE [2]: 16 CELLS/uL
ABSOLUTE SEGMENTED NEUTROPHIL [2]: 133 CELLS/uL
BASOPHIL [2]: 0%
EOSINOPHIL [2]: 0%
ERYTHROCYTE COUNT [2]: 4.56 x10E6/uL
HEMATOCRIT [2]: 29.63%
HEMOGLOBIN [2]: 11.37 G/DL
LEUKOCYTE COUNT [2]: 4.5 x10E3/uL
LYMPHOCYTE [2]: 96.67%
MEAN CORPUSCULAR HEMOGLOBIN [2]: 24.93 pg
MEAN CORPUSCULAR HEMOGLOBIN CONCENTRATION [2]: 38.43 G/DL
MEAN CORPUSCULAR VOLUME [2]: 64.87 fL
MONOCYTE [2]: 0.33%
NEUTROPHIL [2]: 3%
NUCLEATED RED BLOOD CELLS [2]: 0 /100WBC
PLATELET COUNT [2]: 1033 x10E3/uL
ALANINE AMINOTRANSFERASE [2]: 39.67 u/L
ALBUMIN [2]: 3.97 G/DL
ALKALINE PHOSPHATASE [2]: 323.33 u/L
ASPARTATE AMINOTRANSFERASE [2]: 76 u/L
BLOOD UREA NITROGEN [2]: 10 mg/dL
CARBON DIOXIDE [2]: 30.33 mmol/L
CHLORIDE [2]: 100.67 MEQ/L
CHOLESTEROL [2]: 77.33 mg/dL
CREATINE PHOSPHOKINASE [2]: 221.33 u/L
CREATININE [2]: 0.2 mg/dL
GLUCOSE [2]: 154.67 mg/dL
LACTATE DEHYDROGENASE [2]: 79 u/L
LIPASE [2]: 9 u/L
PHOSPHORUS [2]: 10.53 mg/dL
POTASSIUM [2]: 5.6 MEQ/L
SODIUM [2]: 144.93 MEQ/L
TOTAL BILIRUBIN [2]: 0.1 mg/dL
TOTAL PROTEIN [2]: 5.93 G/DL
URIC ACID [2]: 0.53 mg/dL
ABSOLUTE BASOPHIL [3]: 0 CELLS/uL
ABSOLUTE EOSINOPHIL [3]: 0 CELLS/uL
ABSOLUTE LYMPHOCYTE [3]: 4141 CELLS/uL
ABSOLUTE MONOCYTE [3]: 8.33 CELLS/uL
ABSOLUTE SEGMENTED NEUTROPHIL [3]: 117.33 CELLS/uL
BASOPHIL [3]: 0%
EOSINOPHIL [3]: 0%
ERYTHROCYTE COUNT [3]: 4.75 x10E6/uL
HEMATOCRIT [3]: 30.23%
HEMOGLOBIN [3]: 11.9 G/DL
LEUKOCYTE COUNT [3]: 4.27 x10E3/uL
LYMPHOCYTE [3]: 97%
MEAN CORPUSCULAR HEMOGLOBIN [3]: 25.03 pg
MEAN CORPUSCULAR HEMOGLOBIN CONCENTRATION [3]: 39.37 G/DL
MEAN CORPUSCULAR VOLUME [3]: 63.63 fL
MONOCYTE [3]: 0.33%
NEUTROPHIL [3]: 2.67%
NUCLEATED RED BLOOD CELLS [3]: 0 /100WBC
PLATELET COUNT [3]: 955 x10E3/uL
ALANINE AMINOTRANSFERASE [3]: 47 u/L
ALBUMIN [3]: 3.97 G/DL
ALKALINE PHOSPHATASE [3]: 216.67 u/L
ASPARTATE AMINOTRANSFERASE [3]: 84.67 u/L
BLOOD UREA NITROGEN [3]: 11.33 mg/dL
CARBON DIOXIDE [3]: 28.67 mmol/L
CHLORIDE [3]: 100.67 MEQ/L
CHOLESTEROL [3]: 82 mg/dL
CREATINE PHOSPHOKINASE [3]: 362.67 u/L
CREATININE [3]: 0.1 mg/dL
GLUCOSE [3]: 158.67 mg/dL
LACTATE DEHYDROGENASE [3]: 74 u/L
LIPASE [3]: 8.67 u/L
PHOSPHORUS [3]: 10.1 mg/dL
POTASSIUM [3]: 5.3 MEQ/L
SODIUM [3]: 144.07 MEQ/L
TOTAL BILIRUBIN [3]: 0.1 mg/dL
TOTAL PROTEIN [3]: 5.87 G/DL
URIC ACID [3]: 0.47 mg/dL

Source: ChEMBL document CHEMBL3885881, “DrugMatrix”
